Here are results for two compounds from patent US20160030438A1, “ANTI-TUMORAL COMPOSITION COMPRISING A PI3KBETA INHIBITOR AND A RAF INHIBITOR, TO OVERCOME CANCER CELLS RESISTANCE” (SANOFI, priority 2013, published 2016).

SMILES strings stand for the structures. Several values for one entry are separate records, joined by “and”; a condition that tells them apart may be missing. Equal entries are not always repeated.

One test deals with PI3Kβ isoform (Homo sapiens, UniProt P42338). Put plainly: PI3Kβ biochemical assay. The note with it: biochemical assays.
Test [1] addresses T1, PI3Kdelta (Homo sapiens, UniProt O00329). Put plainly: PI3Kdelta biochemical assay. Conditions: biochemical assays.
Target sequence in this assay (O00329 whole entry, species assumed): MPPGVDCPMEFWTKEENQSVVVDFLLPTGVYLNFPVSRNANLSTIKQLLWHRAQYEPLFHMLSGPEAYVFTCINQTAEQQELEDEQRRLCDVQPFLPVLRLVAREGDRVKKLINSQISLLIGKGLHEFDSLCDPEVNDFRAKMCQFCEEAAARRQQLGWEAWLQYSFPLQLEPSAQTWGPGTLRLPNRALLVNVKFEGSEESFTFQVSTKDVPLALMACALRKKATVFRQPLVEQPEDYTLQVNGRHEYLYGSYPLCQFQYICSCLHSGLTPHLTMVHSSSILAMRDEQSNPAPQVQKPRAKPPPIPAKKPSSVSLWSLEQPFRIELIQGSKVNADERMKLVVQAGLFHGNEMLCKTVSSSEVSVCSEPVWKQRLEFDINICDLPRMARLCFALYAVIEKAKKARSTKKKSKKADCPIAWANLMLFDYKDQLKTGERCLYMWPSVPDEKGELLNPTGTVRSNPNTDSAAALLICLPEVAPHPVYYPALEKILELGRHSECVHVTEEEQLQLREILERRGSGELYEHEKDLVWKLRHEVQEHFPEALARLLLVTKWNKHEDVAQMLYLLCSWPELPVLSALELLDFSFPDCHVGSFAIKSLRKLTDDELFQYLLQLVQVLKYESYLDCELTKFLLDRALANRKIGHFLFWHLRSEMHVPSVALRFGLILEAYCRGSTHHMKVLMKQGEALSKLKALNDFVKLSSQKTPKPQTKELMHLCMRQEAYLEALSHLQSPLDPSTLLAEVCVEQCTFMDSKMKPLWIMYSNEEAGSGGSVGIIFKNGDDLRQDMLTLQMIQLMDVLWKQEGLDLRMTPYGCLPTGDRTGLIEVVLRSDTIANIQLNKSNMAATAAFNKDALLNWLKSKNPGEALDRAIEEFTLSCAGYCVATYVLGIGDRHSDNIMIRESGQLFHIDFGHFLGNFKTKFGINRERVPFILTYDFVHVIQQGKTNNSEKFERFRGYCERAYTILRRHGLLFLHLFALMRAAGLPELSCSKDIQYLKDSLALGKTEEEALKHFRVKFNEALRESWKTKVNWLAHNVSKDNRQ
Target sequence in this assay (P27986 whole entry partner, species assumed): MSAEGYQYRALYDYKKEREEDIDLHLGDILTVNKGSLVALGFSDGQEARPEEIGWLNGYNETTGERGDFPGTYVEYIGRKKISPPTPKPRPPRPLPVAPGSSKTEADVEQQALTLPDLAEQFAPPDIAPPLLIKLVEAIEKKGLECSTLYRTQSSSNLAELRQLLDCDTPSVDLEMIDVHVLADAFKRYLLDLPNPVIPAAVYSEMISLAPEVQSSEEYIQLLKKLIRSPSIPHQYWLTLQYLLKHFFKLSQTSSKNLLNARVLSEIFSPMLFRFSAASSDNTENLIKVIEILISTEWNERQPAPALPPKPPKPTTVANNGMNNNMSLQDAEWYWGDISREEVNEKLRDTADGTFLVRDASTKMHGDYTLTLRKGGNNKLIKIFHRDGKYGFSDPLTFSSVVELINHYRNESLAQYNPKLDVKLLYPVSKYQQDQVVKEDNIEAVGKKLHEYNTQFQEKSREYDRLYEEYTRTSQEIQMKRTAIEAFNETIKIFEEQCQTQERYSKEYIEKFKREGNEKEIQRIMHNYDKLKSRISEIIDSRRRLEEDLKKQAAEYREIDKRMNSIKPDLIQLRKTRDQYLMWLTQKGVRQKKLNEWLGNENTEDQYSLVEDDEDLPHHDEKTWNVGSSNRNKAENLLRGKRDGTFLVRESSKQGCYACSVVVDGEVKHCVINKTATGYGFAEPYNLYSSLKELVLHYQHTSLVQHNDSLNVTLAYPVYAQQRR
In test [2] the target is PI3Kgamma (Homo sapiens, UniProt P48736). Put plainly: PI3Kgamma biochemical assay. The note with it: biochemical assays.
The next test addresses mTOR (Homo sapiens, UniProt P42345). Put plainly: mTOR inhibition. The note with it: up to 10 μM. The class given is biochemical.
For a further test, the target named is VPS34 lipid kinase (Homo sapiens, UniProt Q8NEB9). Put plainly: Profiling against panel of more than 400 lipid and protein kinases (VPS34). The note with it: biochemical.
For another test, the target named is VPS34 (Homo sapiens, UniProt Q8NEB9). In words: Functional VPS34 cellular assay. Format: cell-based.
A further test addresses PI3Kβ (Homo sapiens, UniProt P42338). In words: Inhibition of AKT phosphorylation (pAkt-S473) in MEF-3T3-myr p110β mouse fibroblasts. The note with it: pAkt-S473, MEF-3T3-myr p110β; read-out: IC50 on PI3Kβ in the PI3Kβ-dependent cell line. The class given is cell-based.
Test [3] addresses T1, PI3Kdelta. Put plainly: Inhibition of AKT phosphorylation (pAkt-S473) in MEF-3T3-myr p110δ mouse fibroblasts. The note with it: pAkt-S473, MEF-3T3-myr p110δ; read-out: IC50 on PI3Kdelta in cells. The class given is cell-based.
Target sequence in this assay (O00329 whole entry, species assumed): as the sequence (O00329 whole entry, species assumed) above
Target sequence in this assay (P26450 whole entry partner, species assumed): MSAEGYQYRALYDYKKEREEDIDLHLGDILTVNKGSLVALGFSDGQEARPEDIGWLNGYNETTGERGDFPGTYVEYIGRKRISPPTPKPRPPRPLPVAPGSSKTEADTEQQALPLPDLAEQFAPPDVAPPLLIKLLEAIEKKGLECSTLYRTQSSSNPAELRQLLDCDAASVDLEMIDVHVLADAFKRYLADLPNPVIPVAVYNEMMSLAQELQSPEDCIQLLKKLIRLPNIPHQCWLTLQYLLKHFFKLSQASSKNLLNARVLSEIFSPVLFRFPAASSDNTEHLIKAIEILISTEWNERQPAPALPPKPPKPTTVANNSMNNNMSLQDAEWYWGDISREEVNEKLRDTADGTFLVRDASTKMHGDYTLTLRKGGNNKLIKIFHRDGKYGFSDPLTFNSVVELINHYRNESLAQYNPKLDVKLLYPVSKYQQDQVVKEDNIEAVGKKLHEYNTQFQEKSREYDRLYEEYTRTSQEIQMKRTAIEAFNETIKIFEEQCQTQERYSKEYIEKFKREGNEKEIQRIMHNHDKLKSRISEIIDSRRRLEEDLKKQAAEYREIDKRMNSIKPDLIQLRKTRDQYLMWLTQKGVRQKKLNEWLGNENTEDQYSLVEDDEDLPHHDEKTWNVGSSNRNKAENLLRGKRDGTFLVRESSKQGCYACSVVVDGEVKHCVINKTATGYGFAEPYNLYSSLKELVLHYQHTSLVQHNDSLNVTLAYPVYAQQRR
In test [4] the target is T2, PI3Kgamma (Mus musculus, UniProt Q9JHG7).
T2 construct: RAW 264.7 mouse macrophages (after stimulation of AKT phosphorylation by C5a) for PI3Kgamma; endogenous in cells; host or cells: RAW 264.7 mouse macrophages
In words: Inhibition of AKT phosphorylation (pAkt-S473) in RAW 264.7 mouse macrophages after C5a stimulation. Format: cell-based. The note with it: pAkt-S473, RAW 264.7, C5a; read-out: IC50 on PI3Kgamma in cells.

The test system of test [5] is ribosomal protein S6 phosphorylated on Ser240/244 (pS6) in WM-266-4 cells. Put plainly: In vitro S6 phosphorylation inhibition (pS6 western blot) in WM-266-4, example 7. The class given is cell-based, human. Conditions: for inhibition at 0.1 µM: Homo sapiens. As for the experimental part:
The inhibitory effect on ribosomal S6 protein phosphorylation by both compounds alone or in combination was characterized using western blotting method which allows investigating S6 phosphorylation by detecting the expression of ribosomal protein S6 phosphorylated on Ser240/244 position (pS6).
(§1) The human melanoma WM-266-4 cell line was purchased at ATCC (Ref number CRL-1676 Batch 3272826). The WM-266-4 cells were cultured in RPMI1640 medium supplemented with 10% FBS and 2 mM L-Glutamine.
WM-266-4 cells were seeded into 6-well microplates at 1 000 000 cells per well, in complete culture medium and incubated at 37° C., 5% CO2, overnight.
At the end of cell treatment period, adherent cells as well as cells in the cell culture supernatant were lysed for the preparation of the proteins. Cells were lysed in a lysis buffer containing Hepes 50 mM, NaCl 150 mM, Glycerol 10%, Triton 1%, pH=7.5, adding extemporaneously a cocktail of protease and phosphatase inhibitors diluted 100 fold. Protein concentrations in each sample were determined using microBCA technique according to manufacturer's instructions. […] After western blotting revelation according to the operating procedure instructions, luminescence was read using FujiFilm (Ray Test) apparatus.
This instrument measures the total signal of luminescence obtained on Fujifilm machine (AU) for each selected band. Then, it subtracts the background value (BG) proportional to the size of the selected band or Area. The background is calculated from a band taken on the specific background of the western blot, to obtain the specific signal or (AU−BG) for each band. The calculation of the percentage of inhibition is performed for each treatment with compound or combination of compounds using the following formula:
Inhibition %=1−(((AU−BG)t/(AU−BG)st))*100

Test [6] relates to human melanoma cell line WM-266-4. In words: In vitro anti-proliferative activity (CelltiterGlo, ray design) in WM-266-4, example 1. Format: cell-based. How it is done: Prior to in vitro combination studies, the activity of individual agents was investigated using WM-266-4 cell line. The purpose of testing individual agents was to determine the independence of their action and to determine the dilution design of the Fixed Ratio Drug Combination assay.
as §1
They were diluted serially, in DMSO following a 3 or 3.3-fold dilution step in order to obtain 10 mM to 0.03 μM solutions: then each solution was diluted 50-fold in culture medium containing 10% serum before being added onto cells with a 20-fold dilution factor. The final concentrations tested were defined by a Ray design which allows characterizing the interaction of the two compounds for several fixed proportions in the mixture. The ray design used for this experiment includes one ray for each single agent and 4 combination rays. All rays have 10 concentrations (see Table 1). The DMSO concentration was 0.1% in controls and in all treated wells.
WM-266-4 cells were plated at 2500 cells/well in 96-well plates in appropriate culture medium and incubated for 6 hours at 37° C., 5% CO2. […] Cell growth was evaluated by measuring intracellular ATP using CelltiterGlo® reagent (Promega) according to the manufacturer's protocol. Briefly, CellTiterGlo® was added to each plate, incubated for 1 hour then luminescent signal was read on the MicroBeta Luminescent plate reader. Three experiments have been performed on the cell line. For each experiment, two 96-well plates are used allowing working with duplicates.
Inhibition of cell growth was estimated after treatment with one compound or the combination of compounds for four days and comparing the signal to cells treated with vehicle (DMSO).
Growth inhibition percentage (GI %) was calculated according to the following equation:
GI %=100*(1−((X−BG)/(TC−BG)) […]
On the technique in general: ATP-based viability assays read luminescence as a measure of living cells.

A further test concerns BRAF mutated melanoma. The note with it: phase I trial; cited from earlier work.
The mark [7] stands for this setting: single agent 10 000 nM, 24 hours.

PI3Kgamma (Homo sapiens, UniProt P48736), sequence (P48736 whole entry, species assumed): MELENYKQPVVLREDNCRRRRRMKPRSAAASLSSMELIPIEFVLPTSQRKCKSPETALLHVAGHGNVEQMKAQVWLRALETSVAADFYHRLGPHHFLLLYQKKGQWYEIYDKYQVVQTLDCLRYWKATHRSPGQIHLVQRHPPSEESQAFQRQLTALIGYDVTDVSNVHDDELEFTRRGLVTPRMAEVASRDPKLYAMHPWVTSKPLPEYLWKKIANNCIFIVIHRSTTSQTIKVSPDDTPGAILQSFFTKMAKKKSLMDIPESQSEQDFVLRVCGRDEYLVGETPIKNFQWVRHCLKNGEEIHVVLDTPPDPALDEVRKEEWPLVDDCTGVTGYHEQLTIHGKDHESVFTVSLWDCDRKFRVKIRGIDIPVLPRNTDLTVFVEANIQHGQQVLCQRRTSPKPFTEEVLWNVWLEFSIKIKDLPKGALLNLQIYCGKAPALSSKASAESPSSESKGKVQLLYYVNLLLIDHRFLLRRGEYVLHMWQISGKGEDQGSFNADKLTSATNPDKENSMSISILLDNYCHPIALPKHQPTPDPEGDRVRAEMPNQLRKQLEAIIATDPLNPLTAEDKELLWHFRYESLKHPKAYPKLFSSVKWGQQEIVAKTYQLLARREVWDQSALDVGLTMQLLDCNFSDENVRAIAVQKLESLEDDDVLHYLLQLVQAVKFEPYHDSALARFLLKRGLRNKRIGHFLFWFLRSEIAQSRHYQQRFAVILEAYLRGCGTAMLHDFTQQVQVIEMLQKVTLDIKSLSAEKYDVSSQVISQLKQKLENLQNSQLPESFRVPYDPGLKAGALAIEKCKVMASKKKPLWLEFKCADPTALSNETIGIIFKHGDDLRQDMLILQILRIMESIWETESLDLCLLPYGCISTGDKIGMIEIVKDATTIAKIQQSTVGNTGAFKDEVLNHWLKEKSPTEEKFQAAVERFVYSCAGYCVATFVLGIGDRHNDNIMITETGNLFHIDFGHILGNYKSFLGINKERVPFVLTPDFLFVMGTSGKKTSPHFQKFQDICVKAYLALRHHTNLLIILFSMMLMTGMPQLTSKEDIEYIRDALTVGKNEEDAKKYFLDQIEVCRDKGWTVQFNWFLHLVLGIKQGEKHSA
PI3Kβ, sequence (P42338 whole entry, species assumed): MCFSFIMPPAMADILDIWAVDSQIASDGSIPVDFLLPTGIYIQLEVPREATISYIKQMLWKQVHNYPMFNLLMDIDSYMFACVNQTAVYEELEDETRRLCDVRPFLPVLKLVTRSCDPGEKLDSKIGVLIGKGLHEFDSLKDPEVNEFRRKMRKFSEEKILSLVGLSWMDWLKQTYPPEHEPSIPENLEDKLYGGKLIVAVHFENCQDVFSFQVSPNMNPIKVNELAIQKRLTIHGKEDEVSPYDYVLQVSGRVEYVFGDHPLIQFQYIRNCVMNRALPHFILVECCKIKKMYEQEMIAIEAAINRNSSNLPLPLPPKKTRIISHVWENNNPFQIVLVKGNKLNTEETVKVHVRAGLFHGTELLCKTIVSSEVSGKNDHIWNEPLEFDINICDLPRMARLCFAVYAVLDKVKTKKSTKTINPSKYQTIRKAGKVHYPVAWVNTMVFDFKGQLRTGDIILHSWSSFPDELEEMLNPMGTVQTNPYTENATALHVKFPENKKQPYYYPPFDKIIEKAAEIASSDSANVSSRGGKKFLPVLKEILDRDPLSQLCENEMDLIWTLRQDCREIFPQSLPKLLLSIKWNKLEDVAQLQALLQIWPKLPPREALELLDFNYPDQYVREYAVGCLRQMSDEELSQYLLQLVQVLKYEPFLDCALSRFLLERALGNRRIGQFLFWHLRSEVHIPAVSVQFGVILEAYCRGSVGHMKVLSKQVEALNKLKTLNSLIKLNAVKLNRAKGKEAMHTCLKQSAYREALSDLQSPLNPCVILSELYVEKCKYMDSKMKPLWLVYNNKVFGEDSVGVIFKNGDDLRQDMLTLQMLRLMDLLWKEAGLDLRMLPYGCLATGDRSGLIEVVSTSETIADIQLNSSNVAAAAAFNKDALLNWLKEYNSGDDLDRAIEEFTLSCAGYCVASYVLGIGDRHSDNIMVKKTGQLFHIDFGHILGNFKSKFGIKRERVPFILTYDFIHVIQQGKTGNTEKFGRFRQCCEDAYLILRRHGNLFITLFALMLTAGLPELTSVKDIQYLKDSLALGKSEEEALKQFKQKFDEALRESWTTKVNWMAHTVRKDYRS
PI3Kβ, sequence (P26450 whole entry partner, species assumed): as the sequence (P26450 whole entry partner, species assumed) above
PI3Kβ isoform, sequence (P42338 whole entry, canonical isoform): as the sequence (P42338 whole entry, species assumed) above
PI3Kβ isoform, sequence (P27986 whole entry partner, canonical isoform): as the sequence (P27986 whole entry partner, species assumed) above

As usually defined, the inhibition is the drop in the measured response relative to a control, in per cent. As for `C[C@H]1Cc2ccccc2N1C(=O)Cc1nc(N2CCOCC2)cc(=O)[nH]1` [Compound (I), 2-{2-[(2S)-2-methyl-2,3-dihydro-1H-indol-1-yl]-2-oxoethyl}-6-(morpholin-4-yl)pyrimidin-4(3H)-one], the IC50 at PI3Kβ isoform was 65 nM; at PI3Kdelta [1], 465 nM; against PI3Kgamma [2], greater than 10000 nM; on VPS34 lipid kinase, 180 nM; against VPS34 it was greater than 10000 nM; at PI3Kβ, 32 nM. In addition, the values for the IC50 on PI3Kdelta [3] and on PI3Kgamma [4] were 823 nM and greater than 3000 nM, respectively. For the same compound, the mTOR inhibition result on mTOR is “not inhibit mTOR”. In test [5] (single agent 100 nM), the inhibition at 0.1 µM was 69%. Also, the “pS6 signal (AU-BG)” value in [5] (single agent 100 nM) is 12132104 AU-BG; in test [5] (single agent 1 000 nM) it was 3984365 AU-BG; in test [5] (setting [7]) it was 2239754 AU-BG. Further, the “Inhibition % of S6 phosphorylation” value in test [5] (single agent 1 000 nM) stood at 90%; in [5] (setting [7]), 94%.

Regarding `CCCS(=O)(=O)Nc1ccc(F)c(C(=O)c2c[nH]c3ncc(-c4ccc(Cl)cc4)cc23)c1F` [Compound (II), 1-Propanesulfonamide,N-[3-[[5-(4-chlorophenyl)-1H-pyrrolo[2,3-b]pyridin-3-yl]carbonyl]-2,4-difluorophenyl]], in test [6] (Homo sapiens, WM 266-4, approximately, read-out: IC50 with WM-266-4 sensitive cancer cells), the IC50 was roughly 84 nM. Also, the “Absolute IC40s” value in [6] (single agent, WM-266-4, 96 hours, example 1) is 35 nM and 34.9 nM. The “IC40, antiproliferative effect, WM-266-4” value in test [6] (single agent, approximately) is reported as roughly 60 nM. In [5] (single agent 100 nM), the inhibition at 0.1 µM came to 76% and the “pS6 signal (AU-BG)” value was 9230994 AU-BG. Also, in test [5] (single agent 1 000 nM), the “Inhibition % of S6 phosphorylation” value is recorded as 92% and the “pS6 signal (AU-BG)” value is 3163194 AU-BG. Also, in test [5] (setting [7]), the “Inhibition % of S6 phosphorylation” value stood at 94% and the “pS6 signal (AU-BG)” value is 2333062 AU-BG. Also, the “patients with at least 30% tumor shrinkage by RECIST” value in the test on BRAF mutated melanoma is listed as 81%.
